Data as given in patent publication US8609173B2, “Compositions comprising sweetness enhancers and methods of making them” (Senomyx Inc., priority 2008, dated 2013).

What was measured:
Panelists = assay: Paired comparison taste test, strawberry yogurt; type: in vivo, Human
Procedure: Two strawberry yogurt compositions were prepared and then mixed with plain, nonfat yogurt. One strawberry fruit composition was sweetened with a mixture of sucrose and fructose, and a second strawberry fruit composition was sweetened with ⅓ less sucrose and 3 ppm of 3-(4-amino-2,2-dioxide-1H-benzo[c][1,2,6]thiadiazin-5-yloxy)-2′,2′-dimethyl-N-propylpropanamide. The compositions of the two fruit compositions are as follows:
Panelists evaluated two yogurt compositions in a paired comparison taste test procedure and were instructed to select the sweeter of the two samples. They perform a total of three paired comparison tests each containing the following samples: Strawberry Yogurt with 100% Sucrose vs. Strawberry Yogurt with 66.6% Sucrose+3 ppm (8.47 μM) 3-(4-amino-2,2-dioxide-1H-benzo[c][1,2,6]thiadiazin-5-yloxy)-2′,2′-dimethyl-N-propylpropanamide.
Strawberry Yogurt Preparation: 1000 g batches of finished strawberry yogurt was made by adding 16% (by weight) strawberry fruit prep to 84% (by weight) plain nonfat yogurt and mixing with a wire whip until homogenous, a minimum of five minutes. The Compound A was dissolved into a 0.10% concentration level in propylene glycol and then added to the strawberry yogurt and mixed with a wire whip until homogenous, about 5 minutes.

External panelists = assay: Paired comparison test (2-alternative forced choice), Example 3B, sucrose; type: in vivo, Human; settings: 9% sucrose chosen, vs 6% Sucrose + 10 ppm (35.29 μM) compound; n = 28
Procedure: Several types of sensory tests were used to determine the efficacy of 5-(neopentyloxy)-1H-benzo[c][1,2,6]thiadiazin-4-amino-2,2-dioxide in enhancing sweetness of sucrose. Two types of tests were conducted: • 1) Sensory scaling tests were performed using a 15-point percent sucrose equivalence scale for sweetness in order to evaluate sweetness enhancement 5-(neopentyloxy)-1H-benzo[c][1,2,6]thiadiazin-4-amino-2,2-dioxide in sucrose, or in fructose. • 2) Paired comparison tests (2-alternative forced choice difference tests) were used to determine sweetness equivalence for solutions of sucrose vs. 5-(neopentyloxy)-1H-benzo[c][1,2,6]thiadiazin-4-amino-2,2-dioxide or buffer vs. 5-(neopentyloxy)-1H-benzo[c][1,2,6]thiadiazin-4-amino-2,2-dioxide. Stimuli:
Panelists performed 2 directional paired comparison tests to determine which sample was sweeter. The test compared the sweetness intensity of 9% sucrose to that of 6% sucrose+10 ppm (35.29 μM) 5-(neopentyloxy)-1H-benzo[c][…]thiadiazin-4-amino-2,2-dioxide. Panelists were also to comment on the difficulty of the test and if any off tastes were perceived. Samples were completely randomized.

SMILES | Sample selected as sweeter by panelists, Total (Panelists; Strawberry Yogurt with 4.5% Sucrose + 3 ppm (8.47 μM) compound chosen, vs 6.7% Sucrose, n = 72) | Sweetness comparison (conclusion) (Panelists; Strawberry Yogurt with 66.6% Sucrose + 3 ppm (8.47 μM) compound vs 100% Sucrose, p>0.10) | Sample selected as more sweet by panelists, Total (External panelists)
CCCNC(=O)C(C)(C)COc1cccc2c1C(N)=NS(=O)(=O)N2 [3-(4-amino-2,2-dioxide-1H-benzo[c][1,2,6]thiadiazin-5-yloxy)-2′,2′-dimethyl-N-propylpropanamide] | 33 | not significantly different in sweetness | 
OC[C@H]1O[C@@](CO)(O[C@H]2O[C@H](CO)[C@@H](O)[C@H](O)[C@H]2O)[C@@H](O)[C@@H]1O [Sucrose, sucrose] |  |  | 9
